# Test results taken from ChEMBL document CHEMBL1134446, “Polyamine analogue antidiarrheals: a structure-activity study” (J Med Chem, 2001).
# Several values for one entry are separate records, joined by “and”; a condition that tells them apart may be missing. Identical values can stand only once.
# What was measured:
# Canis familiaris [1] = assay: Spermine Distribution in kidney was determined after DESPM dosing of 8.0 mg/kg/day for 4.5 days in dog(cu dose-52.4) and sacrificed at 10 days PLD(cu dose-36 mg/kg); format: ADME, organism-based, Canis lupus familiaris; conditions: in vivo, 240 h
# Canis familiaris [2] = assay: putrescine Distribution in liver was determined after DESPM dosing of 6.0 mg/kg/day for 4.5 days in dog(cu dose-52.4) and sacrificed at 75 days PLD(cu dose-27 mg/kg); format: ADME, organism-based, Canis lupus familiaris; conditions: in vivo, 1800 h
# Canis familiaris [3] = assay: MESPM/MEHSPH Distribution in kidney was determined after DESPM dosing of 4 mg/kg/day for 13 days in dog(cu dose-52.4) and sacrificed at 75 days PLD(cu dose-52 mg/kg); format: ADME, organism-based, Canis lupus familiaris; conditions: in vivo, 1800 h
# Canis familiaris [4] = assay: Spermine Distribution in liver was determined after DESPM dosing of 6.0 mg/kg/day for 4.5 days in dog(cu dose-52.4) and sacrificed at 10 days PLD(cu dose-27 mg/kg); format: ADME, organism-based, Canis lupus familiaris; conditions: in vivo, 240 h
# Rattus norvegicus [5] = assay: Weight loss of rat over the 6-h experimental period when a dose of 9.4 mg/kg (23.3 administered; format: functional
# Canis familiaris [6] = assay: Spermidine Distribution in kidney was determined after DESPM dosing of 1.87 mg/kg/day for 28 days in dog(cu dose-52.4) and sacrificed at 75 days PLD(cu dose-52.4 mg/kg); format: ADME, organism-based, Canis lupus familiaris; conditions: in vivo, 1800 h
# Rattus norvegicus [7] = assay: Percent reduction was determined by using the ratio of mean of treated animal to that of control animal at a dose of 14.3 mg/kg; format: functional
# Canis familiaris [8] = assay: Spermine Distribution in kidney was determined after DESPM dosing of 6.0 mg/kg/day for 4.5 days in dog(cu dose-52.4) and sacrificed at 75 days PLD(cu dose-27 mg/kg); format: ADME, organism-based, Canis lupus familiaris; conditions: in vivo, 1800 h
# Canis familiaris [9] = assay: MESPM/MEHSPH Distribution in liver was determined after DESPM dosing of 4 mg/kg/day for 13 days in dog(cu dose-52.4) and sacrificed at 75 days PLD(cu dose-52 mg/kg); format: ADME, organism-based, Canis lupus familiaris; conditions: in vivo, 1800 h
# Canis familiaris [10] = assay: Spermidine Distribution in kidney was determined after DESPM dosing of 8.0 mg/kg/day for 4.5 days in dog(cu dose-52.4) and sacrificed at 10 days PLD(cu dose-36 mg/kg); format: ADME, organism-based, Canis lupus familiaris; conditions: in vivo, 240 h
# Canis familiaris [11] = assay: putrescine Distribution in kidney was determined after DESPM dosing of 6.0 mg/kg/day for 4.5 days in dog and sacrificed at 75 days PLD(cu dose-27 mg/kg); format: ADME, organism-based, Canis lupus familiaris; conditions: in vivo, 1800 h
# Canis familiaris [12] = assay: Spermine Distribution in kidney was determined after DESPM dosing of 1.87 mg/kg/day for 28 days in dog(cu dose-52.4) and sacrificed at 10 days PLD(cu dose-52.4 mg/kg); format: ADME, organism-based, Canis lupus familiaris; conditions: in vivo, 240 h
# Canis familiaris [13] = assay: Spermidine Distribution in liver was determined after DESPM dosing of 1.87 mg/kg/day for 28 days in dog(cu dose-52.4) and sacrificed at 10 days PLD(cu dose-52.4 mg/kg); format: ADME, organism-based, Canis lupus familiaris; conditions: in vivo, 240 h
# Rattus norvegicus [14] = assay: Percent reduction was determined by using the ratio of mean of treated animal to that of control animal at a dose of 94 mg/kg; format: functional
# Rattus norvegicus [15] = assay: Weight loss of rat over the 6-h experimental period when a dose of 4.7 mg/kg (11.6 administered; format: functional
# Canis familiaris [16] = assay: Spermine Distribution in liver was determined after DESPM dosing of 4 mg/kg/day for 13 days in dog(cu dose-52.4) and sacrificed at 75 days PLD(cu dose-52 mg/kg); format: ADME, organism-based, Canis lupus familiaris; conditions: in vivo, 1800 h
# Canis familiaris [17] = assay: Spermine Distribution in kidney was determined after DESPM dosing of 4 mg/kg/day for 13 days in dog(cu dose-52.4) and sacrificed at 75 days PLD(cu dose-52 mg/kg); format: ADME, organism-based, Canis lupus familiaris; conditions: in vivo, 1800 h
# [18] = The acute toxicity was determined in female CD1 mice after (ip) administration; format: functional; conditions: Mus musculus
# Canis familiaris [19] = assay: Spermidine Distribution in liver was determined after DESPM dosing of 6.0 mg/kg/day for 4.5 days in dog(cu dose-52.4) and sacrificed at 75 days PLD(cu dose-27 mg/kg); format: ADME, organism-based, Canis lupus familiaris; conditions: in vivo, 1800 h
# [20] = The chronic toxicity was determined in female CD1 mice after (ip) administration; format: functional; conditions: Mus musculus
# Canis familiaris [21] = assay: Spermine Distribution in liver was determined after DESPM dosing of 6.0 mg/kg/day for 4.5 days in dog(cu dose-52.4) and sacrificed at 75 days PLD(cu dose-27 mg/kg); format: ADME, organism-based, Canis lupus familiaris; conditions: in vivo, 1800 h
# Canis familiaris [22] = assay: putrescine Distribution in liver was determined after DESPM dosing of 1.87 mg/kg/day for 28 days in dog(cu dose-52.4) and sacrificed at 10 days PLD(cu dose-52.4 mg/kg); format: ADME, organism-based, Canis lupus familiaris; conditions: in vivo, 240 h
# Canis familiaris [23] = assay: MESPM/MEHSPH Distribution in liver was determined after DESPM dosing of 6.0 mg/kg/day for 4.5 days in dog(cu dose-52.4) and sacrificed at 75 days PLD(cu dose-27 mg/kg); format: ADME, organism-based, Canis lupus familiaris; conditions: in vivo, 1800 h
# Canis familiaris [24] = assay: Spermidine Distribution in kidney was determined after DESPM dosing of 1.87 mg/kg/day for 28 days in dog(cu dose-52.4) and sacrificed at 10 days PLD(cu dose-52.4 mg/kg); format: ADME, organism-based, Canis lupus familiaris; conditions: in vivo, 240 h
# Canis familiaris [25] = assay: Distribution in kidney was determined after DESPM dosing of 1.87 mg/kg/day for 28 days in dog(cu dose-52.4) and sacrificed at 10 days PLD(cu dose-52.4 mg/kg); format: ADME, organism-based, Canis lupus familiaris; conditions: in vivo, 240 h
# Canis familiaris [26] = assay: Distribution in kidney was determined after DESPM dosing of 4 mg/kg/day for 13 days in dog(cu dose-52.4) and sacrificed at 75 days PLD(cu dose-52 mg/kg); format: ADME, organism-based, Canis lupus familiaris; conditions: in vivo, 1800 h
# Canis familiaris [27] = assay: Spermine Distribution in liver was determined after DEHSPM dosing of 2.0 mg/kg/day for 29 days in dog(cu dose-52.4) and sacrificed at 10 days PLD(cu dose-58 mg/kg); format: ADME, organism-based, Canis lupus familiaris; conditions: in vivo, 240 h
# Canis familiaris [28] = assay: Spermidine Distribution in kidney was determined after DEHSPM dosing of 2.0 mg/kg/day for 29 days in dog(cu dose-52.4) and sacrificed at 10 days PLD(cu dose-58 mg/kg); format: ADME, organism-based, Canis lupus familiaris; conditions: in vivo, 240 h
# Canis familiaris [29] = assay: Distribution in kidney was determined after DESPM dosing of 8.0 mg/kg/day for 4.5 days in dog(cu dose-52.4) and sacrificed at 10 days PLD(cu dose-36 mg/kg); format: ADME, organism-based, Canis lupus familiaris; conditions: in vivo, 240 h
# Canis familiaris [30] = assay: putrescine Distribution in liver was determined after DEHSPM dosing of 2.0 mg/kg/day for 29 days in dog(cu dose-52.4) and sacrificed at 10 days PLD(cu dose-58 mg/kg); format: ADME, organism-based, Canis lupus familiaris; conditions: in vivo, 240 h
# Canis familiaris [31] = assay: Distribution in liver was determined after DESPM dosing of 6.0 mg/kg/day for 4.5 days in dog(cu dose-52.4) and sacrificed at 10 days PLD(cu dose-27 mg/kg); format: ADME, organism-based, Canis lupus familiaris; conditions: in vivo, 240 h
# Canis familiaris [32] = assay: putrescine Distribution in kidney was determined after DEHSPM dosing of 2.0 mg/kg/day for 29 days in dog(cu dose-52.4) and sacrificed at 10 days PLD(cu dose-22 mg/kg); format: ADME, organism-based, Canis lupus familiaris; conditions: in vivo, 240 h
# Canis familiaris [33] = assay: Spermidine Distribution in liver was determined after DEHSPM dosing of 2.0 mg/kg/day […] in dog(cu dose-52.4) and sacrificed at 10 days PLD(cu dose-22 mg/kg); format: ADME, organism-based, Canis lupus familiaris; conditions: in vivo, 240 h
# Canis familiaris [34] = assay: Distribution in liver was determined after DESPM dosing of 4 mg/kg/day for 13 days in dog(cu dose-52.4) and sacrificed at 75 days PLD(cu dose-52 mg/kg); format: ADME, organism-based, Canis lupus familiaris; conditions: in vivo, 1800 h
smiles,measurement,setting,value
CCNCCCNCCCCNCCCNCC [BIS(ETHYL)SPERMINE],Wet weight of tissue,Canis familiaris [1],784 nM/g
same,Wet weight of tissue,Canis familiaris [2],101 nM/g
same,Wet weight of tissue,Canis familiaris [3],0 nM/g
same,Wet weight of tissue,Canis familiaris [4],848 nM/g
same,Weight loss,Rattus norvegicus [5],<5.3 g
same,Wet weight of tissue,Canis familiaris [6],87 nM/g
same,Reduction,Rattus norvegicus [7],66% and 92%
same,Wet weight of tissue,Canis familiaris [8],584 nM/g
same,Wet weight of tissue,Canis familiaris [9],0 nM/g
same,Wet weight of tissue,Canis familiaris [10],66 nM/g
same,Wet weight of tissue,Canis familiaris [11],8 nM/g
same,Wet weight of tissue,Canis familiaris [12],998 nM/g
same,Wet weight of tissue,Canis familiaris [13],179 nM/g
same,Reduction,Rattus norvegicus [14],100%
same,Weight loss,Rattus norvegicus [15],<7.5 g
same,Wet weight of tissue,Canis familiaris [16],886 nM/g
same,Wet weight of tissue,Canis familiaris [17],534 nM/g
same,LD50,[18],400 mg/kg
same,Wet weight of tissue,Canis familiaris [19],244 nM/g
same,LD50,[20],80 mg/kg
same,Wet weight of tissue,Canis familiaris [21],992 nM/g
same,Wet weight of tissue,Canis familiaris [22],86 nM/g
same,Wet weight of tissue,Canis familiaris [23],1 nM/g
same,Wet weight of tissue,Canis familiaris [24],69 nM/g
CCNCCCCNCCCCNCCCCNCC [DIETHYLHOMOSPERMINE],Wet weight of tissue,Canis familiaris [25],50 nM/g
same,Wet weight of tissue,Canis familiaris [26],0 nM/g
same,Wet weight of tissue,Canis familiaris [27],108 nM/g
same,Wet weight of tissue,Canis familiaris [28],41 nM/g
same,Wet weight of tissue,Canis familiaris [29],48 nM/g
same,Wet weight of tissue,Canis familiaris [30],19 nM/g
same,Wet weight of tissue,Canis familiaris [31],30 nM/g
same,Wet weight of tissue,Canis familiaris [32],0 nM/g
same,LD50,[18],300 mg/kg
same,Wet weight of tissue,Canis familiaris [33],68 nM/g
same,LD50,[20],38 mg/kg
same,Wet weight of tissue,Canis familiaris [34],0 nM/g
